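How tested: cells in 96-well plates exposed to compound for 48 hours at five concentrations. GI50 marks 50% less growth. The concentration for full growth arrest is given as TGI.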
Assays:
Assay in all cases: inhibition of tumour cell growth, NCI panel, 48 h
[1] = tested on: NCI-H460 lung
[2] = tested on: SK-MEL-5 melanoma
[3] = tested on: HOP-62 NSCLC
[4] = tested on: RXF 393 renal
[5] = tested on: UACC-257 melanoma
[6] = tested on: HCT-116 colon
[7] = tested on: SK-OV-3 ovarian
[8] = tested on: SF-295 CNS
[9] = tested on: SF-539 CNS
[10] = tested on: SR leukemia

| Compound | TGI [1] [µM] | TGI [2] [µM] | TGI [3] [µM] | TGI [4] [µM] | TGI [5] [µM] | TGI [6] [µM] | TGI [7] [µM] | TGI [8] [µM] | TGI [9] [µM] | TGI [10] [µM] | GI50 [1] [µM] | GI50 [2] [µM] | GI50 [10] [nM] | GI50 [3] [µM] | GI50 [5] [µM] | GI50 [6] [µM] | GI50 [7] [µM] | GI50 [8] [µM] | GI50 [9] [µM] | GI50 [4] [µM] |
| --- | --- | --- | --- | --- | --- | --- | --- | --- | --- | --- | --- | --- | --- | --- | --- | --- | --- | --- | --- | --- |
| CC(C)(C)[Si](Nc1ccccc1)(c1ccccc1)c1ccccc1 | 37.7 | 34.2 | 31.4 | 26.5 | 28.4 | 20.6 | 30.9 | 26 | 25 |  |  |  |  |  |  |  |  |  |  |  |
| CN(C)C(=S)/N=c1\ssc(=S)n1Cc1ccccn1 | 16.8 | > 54.4 | > 100 | 20 | > 100 | > 100 | > 100 | > 65.7 | 45.5 |  |  |  |  |  |  |  |  |  |  |  |
| CCCCCCCCCCCCCCCCCCOCC1(COP(=O)([O-])OCC[N+](C)(C)C)CCCO1 (stereo not drawn) | 3.23 | 27.7 | 9.45 | 1.89 | 27.3 | 22 | 27.7 | 6.84 | 29.4 |  |  |  |  |  |  |  |  |  |  |  |
| COC(=O)C1CCC(N2C(=O)CCC2C(=O)OC)=N1 (stereo not drawn) | > 100 |  | > 100 |  | > 100 | > 100 | > 100 | > 100 |  |  |  |  |  |  |  |  |  |  |  |  |
| Cc1cccc(NC(=O)Cc2nc3ccccc3s2)c1C | > 100 | > 100 | > 100 | > 100 | > 100 |  | > 100 | > 100 | > 100 |  |  |  |  |  |  |  |  |  |  |  |
| O=C(Cc1nc2ccccc2s1)C(=O)Nc1ccc(Cl)cc1Cl | > 100 |  | > 100 |  | > 100 | > 100 | > 100 | > 100 | > 100 | > 100 |  |  |  |  |  |  |  |  |  |  |
| C=C(C)C(=O)N1c2ccc(OC)cc2CC1C(=O)OCC (stereo not drawn) | > 100 | > 100 | > 100 |  | > 100 | > 100 | > 100 | > 100 | > 100 | > 100 |  |  |  |  |  |  |  |  |  |  |
| O=C(O)C1=C(Cl)c2ccccc2S1(=O)=O | > 100 | > 100 | > 100 | > 100 | > 100 |  | > 100 | > 100 |  |  |  |  |  |  |  |  |  |  |  |  |
| O/N=C1/C(=C/c2ccc(Cl)cc2)CCCC1C(NO)c1ccc(Cl)cc1 (stereo not drawn) | 35.3 | 66.2 | 68.9 | 29.6 | 31.6 | 67.1 | > 100 | 36.4 | 88.1 |  |  |  |  |  |  |  |  |  |  |  |
| COc1cc(C(=O)/C=C/c2c(-c3cccs3)nc3ccccn23)cc(OC)c1OC | 2.84 | 2.72 | 6.75 |  | 4.46 | 3.08 | 8.35 | > 100 | 4.5 | > 100 | 1.42 | 1.33 | 1340 | 2.88 | 1.88 | 1.63 | 3.01 | 2.24 | 1.87 |  |
| COc1ccc2nc(C3=CN(C4OC(CO)C(O)C(O)C4O)C4C=CC=CC34)sc2c1 (stereo not drawn) | > 100 | 80.7 | 56.9 | > 100 | 89.3 | 81.7 | > 100 | 82.3 | 77.7 |  | > 100 | 31.5 |  | 22.6 | 28 | 22.7 | 96 | 26.6 | 29.3 | 34.6 |
| COC(=O)C1=C2CO[C@@H]3C[C@H]4C(C)(C)CCC[C@]4(C)C(=CC1)[C@]23C | > 100 | 43.2 | > 100 | > 100 | > 100 | 51.3 |  | 37.6 | > 100 |  | 51.1 | 20.8 |  | 45.1 | 35.7 | 22.5 |  | 14.9 | 72.7 | 50.9 |
| C/C(CC(=O)Nc1ccc(NC(=O)/C(C)=N/NS(=O)(=O)c2ccc(C)cc2)cc1)=N\NS(=O)(=O)c1ccc(C)cc1 | > 100 | > 100 | > 100 | > 100 | > 100 | > 100 | > 100 | > 100 | > 100 |  |  |  |  |  |  |  |  |  |  |  |
| CN(C)NC(=S)NC12CC3CC(CC(C3)C1)C2 | > 100 | > 100 | > 100 | > 100 | > 100 | > 100 | > 100 | > 100 | > 100 |  |  |  |  |  |  |  |  |  |  |  |
| O/N=C1/C(=C/c2ccccc2)CCCC1C(NO)c1ccccc1 (stereo not drawn) | > 100 |  |  | > 100 | > 100 | > 100 | > 100 | > 100 | > 100 |  |  |  |  |  |  |  |  |  |  |  |
| CN(C(=O)C1CC1)C1C2CN3CCC(O2)C13 (stereo not drawn) | > 100 | > 100 | > 100 | > 100 | > 100 | > 100 | > 100 | > 100 | > 100 |  |  |  |  |  |  |  |  |  |  |  |
| CO[C@H]1/C=C/C[C@H](C)[C@@H](C)S(=O)(=O)NC(=O)c2ccc3c(c2)N(C[C@@H]2CC[C@H]21)C[C@@]1(CCCc2cc(Cl)ccc21)CO3 | 4.17 | 3.15 | 6.2 |  | 9.69 | 8.35 | 12.6 | 6.05 | 4.55 | 12.2 | 1.99 | 1.61 | 670 | 2.35 | 2.99 | 2.75 | 3.5 | 1.97 | 1.85 |  |
| Cc1cc(S(=O)(=O)Nc2nc3ccsc3c(=O)n2Cc2ccccc2)c(S)cc1Cl | 71 | 34.2 | 46.6 | > 100 | > 100 | 37.7 |  | 98.7 | 70.3 |  | 23.6 | 12.5 |  | 22.7 | 47.8 | 19.2 |  | 26.8 | 28.1 | 44 |
| COC(=O)NN=C1C(C)(C)C(=NNC(=O)OC)C1(C)C | > 100 | > 100 | > 100 | > 100 | > 100 | > 62.5 | > 100 | > 100 | > 100 |  |  |  |  |  |  |  |  |  |  |  |

— PubChem BioAssay (NCI)
